For one test, the target named is T1, Human IRAK4 (Homo sapiens, UniProt Q9NWZ3).
T1 sequence (Q9NWZ3 1-460): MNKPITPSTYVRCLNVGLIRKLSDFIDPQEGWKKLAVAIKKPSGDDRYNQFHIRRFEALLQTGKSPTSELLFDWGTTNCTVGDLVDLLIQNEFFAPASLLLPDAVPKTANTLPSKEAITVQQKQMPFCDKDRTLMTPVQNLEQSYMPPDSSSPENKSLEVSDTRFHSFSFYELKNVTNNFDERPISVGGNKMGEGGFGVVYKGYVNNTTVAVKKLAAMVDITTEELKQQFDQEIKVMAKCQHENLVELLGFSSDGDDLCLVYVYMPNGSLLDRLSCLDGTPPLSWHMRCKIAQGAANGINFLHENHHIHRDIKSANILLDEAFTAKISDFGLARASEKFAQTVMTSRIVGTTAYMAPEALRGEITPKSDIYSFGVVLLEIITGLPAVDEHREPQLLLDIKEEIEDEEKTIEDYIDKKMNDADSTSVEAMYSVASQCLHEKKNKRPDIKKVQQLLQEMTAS
Kind of test: IRAK4 kinase inhibition assay (ADP-Glo). The test is classed as biochemical. As to conditions: for Inhibition of IRAK4 kinase activity: 100 uM of each inhibitor, 12.5 uM ATP, relative activity to DMSO (FIG. 15); for IRAK4 kinase inhibition: at increasing concentration (FIG. 16B). The method, then: FIG. 15. Inhibition of IRAK4 kinase activity by NU's IRAK4 kinase inhibitors. 10 ng IRAK4, 12.5 uM ATP and 500 ng MBP (substrate) were used in the IRAK4 kinase assay. 100 uM of each inhibitor were used individual in the assay and the reaction product ADP was detected by the ADP-GLO assay. Relative activity to DMSO is shown.
(§1) FIG. 16. Development of novel compounds (NUCC0200618 and NUCC0200554) that stabilize the wild-type MLL protein and slow leukemic cell growth through IRAK4 inhibition. A) Western blotting for MLL protein levels in cells treated with the indicated compounds designed and synthesized at Northwestern. Protein stabilization is observed to increase by 6 hours of treatment. B) Luciferase-based IRAK4 kinase assays (Promega) with the indicated doses of the new compounds. C) Cell viability counts after 3 days of treatment with the indicated doses of the new compounds.
The newly synthesized compounds were tested in an IRAK4 kinase inhibition assay as follows. In a 10 μl reaction, 10 ng Human IRAK4, 12.5 μM ATP, 500 ng dephosphorylated MBP (EMD Millipore), and different IRAK inhibitors were used in 1× kinase buffer (60 mM HEPES-NaOH, pH 7.5, 3 mM MgCl2, 3 mM MnCl2, 1.2 mM DTT, 0.1% BSA) at room temperature for 45 minutes. The ADP formed from the kinase reaction was measured by the ADP-Glo™ Kinase Assay (Cat.#V9101) and the luminescence was measured with a Tecan Infinite M1000 plate reader.

For another test, the system named is wild-type MLL protein. Kind of test: MLL stabilization assay (western blotting) with new compounds. The test is classed as cell-based. As to conditions: western blotting for MLL protein levels (FIG. 16A). The method, then: as §1
The newly synthesized compound NUCC0200554 (Compound 16 of Example 2) and compound NUCC0200618 (Compound 21 of Example 2) were further tested in MLL stabilization assay, in an IRAK4 kinase activity as described above, and in a SEM cell proliferation assay as follows. SEM (ACC-546) leukemia cells were maintained in Iscove's Modified Dulbecco's Medium (IMDM) with 10% FBS. Viable SEM cells were seeded at 0.2 million/ml, and treated with different concentrations of inhibitors at the indicated concentrations for three days. Viable cells were monitored by trypan blue exclusion staining and counted using a Vi-CELL XR cell counter. Data are represented as Mean±SD (n=3).

For the next test, the system named is SEM cells. Put plainly: RNA-seq gene expression profiles of SEM cells, new versus commercial IRAK inhibitors. The note with it: 3 days. The test is classed as cell-based, human. The text has this:
FIG. 17. Comparison of novel IRAK4 inhibitors (NUCC numbers) with commercially available IRAK inhibitors (referred to here as IRAK1/4 and IRAK4) on gene expression in leukemia cells as determined by RNA-seq. SEM cells were maintained in IMDM medium with 10% FBS. […] SEM cells were harvested and used for total RNA-seq. A: PCA plot of each group with different treatments. […] B: Distance plot of each group with the indicated treatments.
The gene expression profiles of SEM cells treated with newly synthesized compound NUCC0200554 (Compound 16 of Example 2) and compound NUCC0200618 (Compound 21 of Example 2) as follows. After inhibitor treatment for 3 days, SEM cells were collected and lysed with Trizol reagent. Total RNA was extracted from Trizol according to the manufacturer's instructions. The RNA was treated with DNase I (NEB) and cleaned with the Qiagen RNeasy mini kit. 500 ng RNA was used for library preparation with TruSeq Stranded Total RNA with Ribo-Zero Gold kit (Illumina, RS-123-2201). The sequenced reads were aligned to the human genome (UCSC hgl9) with TopHat 2.1.0 using gene annotations from Ensembl 72. Differential gene expression was performed with Deseq2.

In the next test the test system is MLL-AF9 leukemia. Put plainly: Murine MLL-AF9 leukemia transplantation model. The format is in vivo, C57BL/6 mice. The note with it: treatment from day 10 after transplantation; IRAK1/4 inhibitor 8 mg/kg, IRAK4 inhibitor 75 mg/kg i.p. every other day; vehicle mice all dead by 31 days.
A further test has as its system MDS and T-ALL cells. The note with it: subset of MDS and T-ALL cells with high expression of IRAK1; cited from earlier work.
Another test has as its system REH cells. Put plainly: REH cell proliferation (trypan blue, Vi-CELL XR). The test is classed as cell-based, human. As to conditions: IRAK1/4 inhibitor. The method, then:
FIG. 4. […] Viable cells were seeded at 0.2 million/mL, and they were monitored by trypan blue exclusion staining and counted using a Vi-CELL XR cell counter. Data are represented as mean±SD (n=3). […] Data are represented as mean±SD (n=3). (C) Venn diagram of deregulated genes in SEM cells by IRAK1/4 and IRAK4 inhibitors. […] (D) Venn diagram of deregulated genes in SEM and REH cells by both inhibitors. Little overlap was observed between REH and SEM cells. […] Each cluster is represented by different colors and a circle node represents each enriched term. (G) UBE2O depletion and IRAK inhibition affect a common subset of genes in SEM cells. […] Heatmaps represent Z score-normalized values. See also FIG. 11.
Stabilization of MLL through IRAK Inhibition and UBE2O Depletion Regulates a Specific Gene Regulatory Network in MLL Leukemia. To measure the consequence of stabilizing MLL in MLL leukemia cells, we determined the effects of IRAK inhibition on cell proliferation of REH (MLL-germline leukemia) and SEM (MLL-AFF1) cells. Both of these cell lines are derived from precursor B cell ALL patient blast cells, and, therefore, they have been studied when comparing non-MLL (REH) and MLL-dependent (SEM) leukemia gene expression (Guenther et al., 2008).

For another test, the system named is endogenous MLL protein. Kind of test: MLL protein levels / stability in HEK293 cells (western blotting, cycloheximide chase). Set-up: dose or concentration left out as unconfirmed. As to conditions: for indicated times or different concentrations for 24 hr, relative to DMSO. The test is classed as cell-based, human.
The test system of the next test is MLL occupancy. Put plainly: MLL ChIP-seq in HEK293 cells. The format is cell-based, human. The protocol: (§2) FIG. 3. […] (D) Halo-MLL-Inter-transfected HEK293 cells were treated with […]/4 inhibitor for 24 hr, purified with HaloLink resin, and subjected to MudPIT analysis. […] Each row represents a peak of MLL occupancy (n=6,250), with rows ordered by decreasing MLL occupancy in the inhibitor-treated condition. […] Boxplots depict the read coverage for all MLL peaks. The p value was calculated with the Wilcoxon signed-rank test. See also FIG. 10.
FIG. 10. […] Occupancy in reads per million (rpm)±3 kb around the center of peak is shown (N=6250). Genes are ordered by MLL occupancy in the inhibitor treatment. […] The read counts of all the MLL peaks were plotted and the Wilcoxon signed-rank test was used to calculate the p value (F).
Chromatin Immunoprecipitation Sequencing. […] ChIP-seq reads were aligned to the mouse (UCSC mm9) or human genome (UCSC hg19). Alignments were processed with Bowtie version 1.1.2, allowing only uniquely mapping reads with up to two mismatches within the 50 bp read. The resulting reads were extended to 150 bases toward the interior of the sequenced fragment and normalized to total reads aligned (reads per million, rpm). […] The average coverage (calculated using rpm tracks described above) across the entire region is shown in the boxplots where p values were calculated with the Wilcoxon signed-rank test. […]

The next test concerns MLL-UBE2O interaction. Kind of test: MLL-UBE2O interaction (HaloTag purification, MudPIT, co-immunoprecipitation). The format is cell-based, human. Set-up: dose or concentration left out as unconfirmed. As to conditions: Halo-MLL-Inter-transfected HEK293 cells. The method, then: as §2
A further test deals with SEM and REH cells. Kind of test: Total RNA-seq, SEM versus REH cells. The format is cell-based, human. As to conditions: 2 days of treatment. The method, then:
Total RNA Sequencing. […] Total RNA was extracted from Trizol according to the manufacturer's instructions. The RNA was treated with DNase I (NEB) and cleaned with the QIAGEN RNeasy mini kit. 500 ng RNA was used for library preparation with TruSeq Stranded Total RNA with Ribo-Zero Gold kit (Illumina, RS-123-2201). The sequenced reads were aligned to the human genome (UCSC hgl9) with TopHat 2.1.0 using gene annotations from Ensembl 72. Differential gene expression was performed with EdgeR (Empirical analysis of digital gene expression data in R) version 3.08 (Robinson et al., 2010). Adjusted p values were computed using the Benjamini-Hochburg method. […] P values for Venn diagrams were performed with the hypergeometric test.

Entries after “also recorded” stand apart in the source; their conditions may differ.

Excerpt for MLL-AF9 leukemia: After transformation of MLL-AF9, c-Kit+ HSPCs were transplanted into lethally irradiated C57BL/6 mice with 1 3 106 transformed cells and 2 3 105 support cells. Leukemia cells from primary AML mice were isolated and transplanted into sublethally irradiated C57BL/6 mice. Drug treatments were started at day 10 or 19 after transplantation. (B) Kaplan-Meier survival curves of secondary transplanted C57BL/6 mice after vehicle and IRAK1/4 or IRAK4 inhibitor treatment at day 19 (blast phase). Vehicle or IRAK inhibitors were administered every other day by intraperitoneal injection for a total of five treatments. Leukemia was confirmed at the endpoint for each transplant mouse. […] The p values were calculated using the log rank test. […] The p values were calculated using the log rank test. […]
We further assessed the effects of the IRAK inhibitors in vivo using the murine MLL-AF9 leukemia transplantation model (FIG. 7A) (Volk et al., 2014). […]
Murine MLL-AF9 Leukemia Model. […] The mice were monitored for signs of acute leukemia for 2-3 months and euthanized when leukemia was evident (weight loss below 16.75 g, reduced mobility, malaise, palpable spleen, and hunched back). […]
Animal Treatment. […] Mice were monitored for leukemia development and leukemia was verified after the mice were sacrificed upon signs of illness (weight loss below 16.75 g, partial paralysis, malaise, palpable spleen, and hunched back).

For `O=C(Nc1ncc(-c2cccc(O)c2)[nH]1)c1ccccc1` [NUCC0200618, N-(5-(3-hydroxyphenyl)-1H-imidazol-2-yl)benzamide], on Human IRAK4, the “Inhibition of IRAK4 kinase activity” value was “inhibit IRAK4 kinase activity” and the IRAK4 kinase inhibition entry is “inhibit IRAK4 kinase”. The MLL stabilization entry with wild-type MLL protein was “stabilize MLL”. In the test on SEM cells (5 uM), the “PCA plot grouping of RNA-seq profile” value is “very similar profiles”. The “PCA plot grouping of RNA-seq profile” value with SEM cells (10 uM) was “group together”.

`Nc1cccc(-c2cnc(NC(=O)c3cccc(Cl)c3)[nH]2)c1` [NUCC0200554, N-(5-(3-aminophenyl)-1H-imidazol-2-yl)-3-chlorobenzamide]: on Human IRAK4, the “Inhibition of IRAK4 kinase activity” value is reported as “inhibit IRAK4 kinase activity” and the IRAK4 kinase inhibition result is “inhibit IRAK4 kinase”. Also, the MLL stabilization entry with wild-type MLL protein is recorded as “stabilize MLL”. Moreover, the “PCA plot grouping of RNA-seq profile” value in the test with SEM cells (10 uM) was “very similar profiles”.

Turning to `O=C(Nc1nc2ccccc2n1CCN1CCOCC1)c1cccc([N+](=O)[O-])c1` [IRAK1/4 inhibitor], the “mice that still did not develop MLL-AF9 leukemia as of day 55” value in the test on MLL-AF9 leukemia was “eight of ten”. Also, in the test with MDS and T-ALL cells, the “effect of IRAK1/4 inhibitor alone” value is given as “does not substantially impair these cells”; the “sensitization to BCL2 inhibitor treatment” value was “sensitize a subset of MDS and T-ALL cells”. For the same molecule, the REH cell proliferation entry in the test with REH cells is recorded as “no effect”. For the same molecule, the “MLL protein levels (MLL N320)” value in the test with endogenous MLL protein is “stabilizes endogenous MLL protein; also recorded: stabilizes MLL protein from proteasomal degradation in a dose-dependent manner”. For the same molecule, in the test on endogenous MLL protein (listed as IRAK1/4 inhibitor I), the “MLL protein levels (MLL N320)” value was “increased levels of MLL protein in a time- and dose-dependent manner”. In the test on MLL occupancy (HEK293 cells, 6,250 MLL peaks), the “genome-wide MLL occupancy” value is given as “significant increases in MLL occupancy; also recorded: MLL occupancy is significantly increased; also recorded: general increase in MLL occupancy”. Besides, the “MLL occupancy at MLL target genes HOXA, HOXC, FOXC1” value with MLL occupancy (HEK293 cells, 24 hr, D2M7U and NT86 antibodies) was “enhanced MLL occupancy; also recorded: increases MLL occupancy at HOXA and HOXC loci; also recorded: increased MLL occupancy”. The MLL-UBE2O interaction entry with MLL-UBE2O interaction was “substantially decreased; also recorded: decreases MLL-UBE2O interaction”. Besides, in the test on SEM and REH cells, the “genes downregulated in both REH and SEM cells” value is given as 238 genes; the “genes upregulated in both REH and SEM cells” value was determined as 186 genes.

Source of the values: US10059708B2, “Therapeutic targeting of the interleukin 1 receptor-associated kinase 4 (IRAK4) in leukemias characterized by rearrangements in the mixed lineage leukemia gene (MLL-r)” (Northwestern University, priority 2016, dated 2018).
